Article PMC3145970, “Specific CLK Inhibitors from a Novel Chemotype for Regulation of Alternative Splicing” (Chemistry & Biology, 2011)
Read-outs that look alike come from different tables or passages of the source.

How the values were obtained:
Assay in all cases: Thermal stability shift assay
Format in all cases: binding
[1] = target: T1, PBK (Homo sapiens, UniProt Q96KB5); conditions: read-out: Tm shift PBK
T1 construct: purchased in-house (SGC Oxford thermal shift panel)
T1 sequence (Q96KB5 1-322): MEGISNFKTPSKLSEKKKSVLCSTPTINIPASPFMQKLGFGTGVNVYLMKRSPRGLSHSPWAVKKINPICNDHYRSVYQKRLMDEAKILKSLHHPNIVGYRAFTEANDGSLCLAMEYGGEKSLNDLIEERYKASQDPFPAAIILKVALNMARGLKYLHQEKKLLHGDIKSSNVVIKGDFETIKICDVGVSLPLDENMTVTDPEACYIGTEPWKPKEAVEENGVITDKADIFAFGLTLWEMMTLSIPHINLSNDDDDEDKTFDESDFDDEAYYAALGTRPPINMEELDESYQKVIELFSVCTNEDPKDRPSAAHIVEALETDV
Summary of the method: (§1)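 2 μM protein + 10 μM inhibitor; 10 mM HEPES pH 7.5, 500 mM NaCl, SyproOrange 1:1000; melt in qPCR cycler, dye fluorescence monitored.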

[2] = target: T2, DRAK1 (Homo sapiens, UniProt Q9UEE5); conditions: read-out: Tm shift DRAK1
T2 construct: purchased in-house (SGC Oxford thermal shift panel)
T2 sequence (Q9UEE5 1-414): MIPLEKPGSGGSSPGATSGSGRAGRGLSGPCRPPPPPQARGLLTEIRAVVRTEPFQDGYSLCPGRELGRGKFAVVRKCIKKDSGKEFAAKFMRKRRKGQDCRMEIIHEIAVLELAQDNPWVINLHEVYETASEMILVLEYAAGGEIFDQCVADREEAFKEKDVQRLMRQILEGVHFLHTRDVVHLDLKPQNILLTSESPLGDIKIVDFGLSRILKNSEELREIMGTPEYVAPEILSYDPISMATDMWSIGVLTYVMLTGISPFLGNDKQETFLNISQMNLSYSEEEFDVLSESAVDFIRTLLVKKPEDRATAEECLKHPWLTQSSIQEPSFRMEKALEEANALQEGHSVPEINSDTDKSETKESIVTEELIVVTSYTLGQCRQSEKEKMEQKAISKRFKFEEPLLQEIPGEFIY
Summary of the method: as §1

[3] = target: T3, BARK2 (Homo sapiens, UniProt P35626); conditions: read-out: Tm shift BARK2
T3 sequence (P35626 1-688): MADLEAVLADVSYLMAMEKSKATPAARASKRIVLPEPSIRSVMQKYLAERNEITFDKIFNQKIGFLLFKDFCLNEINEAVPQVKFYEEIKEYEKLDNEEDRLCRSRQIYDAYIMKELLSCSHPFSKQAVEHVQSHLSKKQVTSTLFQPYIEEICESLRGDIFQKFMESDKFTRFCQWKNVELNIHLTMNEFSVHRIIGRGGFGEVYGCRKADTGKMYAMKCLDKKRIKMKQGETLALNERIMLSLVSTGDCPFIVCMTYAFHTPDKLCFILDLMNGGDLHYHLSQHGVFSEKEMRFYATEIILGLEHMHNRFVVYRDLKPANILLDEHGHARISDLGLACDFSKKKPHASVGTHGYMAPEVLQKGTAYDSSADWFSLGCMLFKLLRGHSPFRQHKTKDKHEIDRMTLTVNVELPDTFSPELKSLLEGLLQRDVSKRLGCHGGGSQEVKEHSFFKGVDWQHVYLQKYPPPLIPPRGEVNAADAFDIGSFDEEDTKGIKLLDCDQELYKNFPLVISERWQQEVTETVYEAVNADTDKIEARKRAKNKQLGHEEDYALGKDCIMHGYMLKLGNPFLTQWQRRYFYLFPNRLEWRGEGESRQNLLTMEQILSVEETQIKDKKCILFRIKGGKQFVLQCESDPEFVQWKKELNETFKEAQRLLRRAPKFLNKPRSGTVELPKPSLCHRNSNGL
Summary of the method: as §1

[4] = target: T4, IKKb (Homo sapiens, UniProt O14920); conditions: read-out: Tm shift IKKb
T4 construct: purchased in-house (SGC Oxford thermal shift panel)
T4 sequence (O14920 1-756): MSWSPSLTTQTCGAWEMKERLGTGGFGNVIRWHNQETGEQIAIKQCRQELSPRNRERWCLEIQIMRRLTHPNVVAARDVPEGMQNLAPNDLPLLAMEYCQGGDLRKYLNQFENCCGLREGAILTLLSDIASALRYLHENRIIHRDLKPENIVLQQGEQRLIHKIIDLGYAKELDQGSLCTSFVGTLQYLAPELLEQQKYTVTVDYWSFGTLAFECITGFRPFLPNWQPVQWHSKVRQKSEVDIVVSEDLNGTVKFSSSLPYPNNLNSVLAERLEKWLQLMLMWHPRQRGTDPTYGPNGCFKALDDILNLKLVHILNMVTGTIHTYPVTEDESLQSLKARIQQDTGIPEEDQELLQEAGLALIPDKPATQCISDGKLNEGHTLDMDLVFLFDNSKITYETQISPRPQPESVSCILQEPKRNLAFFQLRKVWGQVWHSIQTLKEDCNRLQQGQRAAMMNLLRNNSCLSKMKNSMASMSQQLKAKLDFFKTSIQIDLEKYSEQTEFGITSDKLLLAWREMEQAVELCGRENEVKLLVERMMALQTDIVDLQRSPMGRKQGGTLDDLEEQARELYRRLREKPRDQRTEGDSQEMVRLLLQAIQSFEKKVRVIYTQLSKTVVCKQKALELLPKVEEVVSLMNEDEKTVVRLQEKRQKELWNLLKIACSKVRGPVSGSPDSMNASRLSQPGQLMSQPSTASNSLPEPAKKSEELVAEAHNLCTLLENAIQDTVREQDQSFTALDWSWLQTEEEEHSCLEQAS
Summary of the method: as §1

ΔTm at 10 µM ([1]; inhibitor 10 μM) | ΔTm at 10 µM ([2]; inhibitor 10 μM) | ΔTm at 10 µM ([3]; inhibitor 10 μM) | ΔTm at 10 µM ([4]; inhibitor 10 μM) | SMILES | ΔTm at 10 µM [1] | ΔTm at 10 µM [2] | ΔTm at 10 µM [3] | ΔTm at 10 µM [4]
 |  |  |  | CCOC(=O)c1c(C(C#N)=CN)c2ccc(Cl)c(Cl)c2n1C (mixture of isomers) [KH-CB20, (E/Z)-Ethyl 3-(2-Amino-1-Cyanovinyl)-6,7-Dichloro-1-Methyl-1H-Indole-2-Carboxylate] | -0.1 °C | 2.6 °C | -0.1 °C | 0.1 °C
-0.9 °C | -0.2 °C | 0.2 °C | 0.6 °C | CCOC(=O)c1c(C(C#N)=CN(C)C)c2ccc(Cl)c(Cl)c2n1C (mixture of isomers) [compound 2, (E/Z)-Ethyl 6,7-Dichloro-3-[1-Cyano-2-(Dimethylamino)Vinyl]-1-Methyl-1H-Indole-2-Carboxylate] |  |  |  | 
 |  |  |  | CCOC(=O)c1c(/C(C#N)=C\N)c2ccc(Cl)c(Cl)c2n1C [KH-CB19, (E)-Ethyl 3-(2-Amino-1-Cyanovinyl)-6,7-Dichloro-1-Methyl-1H-Indole-2-Carboxylate] | -0.3 °C | 2.5 °C | -0.4 °C | -0.1 °C
-0.4 °C | 1.7 °C | 0.3 °C | 0.5 °C | Cn1c2c(Cl)c(Cl)ccc2c2c(C#N)c[nH]c(=O)c21 [compound 3, 7,8-Dichloro-9-Methyl-1-Oxo-2,9-Dihydro-1H-Pyrido[3,4-b]Indole-4-Carbonitrile] |  |  |  | 

SMILES | ΔTm at 10 µM ([1]; inhibitor 10 μM) | ΔTm at 10 µM ([2]; inhibitor 10 μM) | ΔTm at 10 µM ([3]; inhibitor 10 μM) | ΔTm at 10 µM ([4]; inhibitor 10 μM) | ΔTm at 10 µM [1] | ΔTm at 10 µM [2] | ΔTm at 10 µM [3] | ΔTm at 10 µM [4]
NC1=NC(=O)/C(=C2\CCNC(=O)c3[nH]c(Br)cc32)N1 [Hymenialdisine, hymenialdisine, reference compound] | -0.4 °C | 14.8 °C | -0.3 °C | 0.7 °C |  |  |  | 
